The structures appear in SMILES notation.

The record followed here is US20050004102A1, “Monohydroxycarbamazepine for use in the preparation of a medicament for the treatment of affective and attention disorder and neuropathic pain” (priority 2001, published 2005).

The subject of experiment [1] is GABA turnover. As to the kind of experiment: GABA turnover determination after maximal inhibition of GABA-T. It counts as in vivo. The following applies: doses of 30 to about 300 mg/kg p.o. The text has this: The activity of the compound of formula I on GABA turnover is evidenced in the following experiment: The determination of GABA turnover Is based on the linear increase in GABA level observed after the maximal inhibition of gamma-aminobutyric acid transaminase (GABA-T). The values obtained with this approach for the rate of GABA synthesis are independent of the inhibitors used and within the catalytic capacity of the enzymes involved in the GABA shunt.

Experiment [2] has as its system social withdrawal of intruder mice. As to the kind of experiment: social withdrawal of intruder mice. It counts as in vivo. Conditions: dose range of 1 to about 100 mg/kg p.o. The text has this:
The activity of the compound of formula I in the treatment of affective and attention disorders treatment is also evidenced, for example, in tests suitable for detecting drugs having potential behavioural desinhibitory and/or sociotropic effects which are thought to be relevant for recovery from social withdrawal, a cardinal feature of depression and related psychiatric conditions. For instance, drug effects on social withdrawal of intruder mice can be evaluated by using the basic method as described in Triangle, 1982, 21:95-105 and J. Clin. Psychiatry, 1994, 55:9 (suppl. B) 4-7.

The test system of experiment [3] is neuropathic mechanical hyperalgesia. As to the kind of experiment: model of neuropathic pain in the guinea pig (partial sciatic nerve ligation, mechanical hyperalgesia). It counts as in vivo, Dunkin Hartley guinea pigs. The following applies: paw withdrawal threshold, up to 6 hours. The text has this: The direct activity of the compound of formula I in the treatment of neuropathic pain is evidenced, for example, in the following model of neuropathic pain in the guinea pig: Dunkin Hartley guinea pigs are anaesthetised with enflurane (in N2O:O2 for guinea pigs) and the left sciatic nerve is exposed and partially ligated with thread. This procedure produces a mechanical hyperalgesia, which develops within 2-3 days and is maintained for at least 4 weeks. Paw withdrawal thresholds to a pressure stimulus are measured using an analgesymeter. Mechanical thresholds are taken on both the ipsilateral (ligated) and contralateral (unligated) paw prior to and then up to 6 hours following drug or vehicule administration. Reversal of hyperalgesia at each time point is calculated. Groups of 6 animals are used. Statistical analysis is carried out on withdrawal threshold readings using ANOVA followed by Tukey's HSD test.

The test system of experiment [4] is chronic pain in patients with diabetic neuropathy. As to the kind of experiment: clinical trials in chronic pain in patients with diabetic neuropathy. It is filed as in vivo. The following applies: Maintenance and Follow-up Periods. The text has this: The activity of the compound of formula I in the treatment of neuropathic pain and related disorders can be confirmed in clinical trials evaluating the efficacy of a compound in treating chronic pain in patients with diabetic neuropathy.

As to `NC(=O)N1c2ccccc2CC(O)c2ccccc21` (centres unmarked) [compound of formula I, 10-hydroxy-10,11-dihydro-carbamazepine], the GABA turnover rate result in experiment [1] is reported as “dose-dependently inhibits”. For the same molecule, the “social investigation in the treated mouse” value in experiment [2] is reported as “increases social investigation”. In addition, the “reversal of neuropathic mechanical hyperalgesia” value in experiment [3] (3 to about 100 mg/kg s.c.) was “significantly and dose-dependently reverses”; in experiment [3] (10 to about 100 mg/kg p.o.), “significantly and dose-dependently reverses”. Further, the “pain severity ratings relative to placebo” value in experiment [4] is recorded as “decrease pain severity ratings”.
